Assay results: ChEMBL document CHEMBL1201862, “PubChem BioAssay data set” (2004)
Activity calls are given as the source filed them.

Columns and labels:
[1] = molecular target: Potassium voltage-gated channel subfamily KQT member 2 (Rattus norvegicus, UniProt O88943, W236L); assay: KCNQ2 channel potentiators, dose response, mechanism study for KCNQ2 potentiator project, cell-based, automated electrophysiology (AID 2603); assay type: functional
[2] = molecular target: T1, Replicative DNA helicase DnaB (Mycobacterium tuberculosis, UniProt P9WMR3); assay: DnaB intein splicing inhibitors, dose response, biochemical, cell-free fluorescence (AID 449749); assay type: functional
T1 sequence (P9WMR3 whole entry): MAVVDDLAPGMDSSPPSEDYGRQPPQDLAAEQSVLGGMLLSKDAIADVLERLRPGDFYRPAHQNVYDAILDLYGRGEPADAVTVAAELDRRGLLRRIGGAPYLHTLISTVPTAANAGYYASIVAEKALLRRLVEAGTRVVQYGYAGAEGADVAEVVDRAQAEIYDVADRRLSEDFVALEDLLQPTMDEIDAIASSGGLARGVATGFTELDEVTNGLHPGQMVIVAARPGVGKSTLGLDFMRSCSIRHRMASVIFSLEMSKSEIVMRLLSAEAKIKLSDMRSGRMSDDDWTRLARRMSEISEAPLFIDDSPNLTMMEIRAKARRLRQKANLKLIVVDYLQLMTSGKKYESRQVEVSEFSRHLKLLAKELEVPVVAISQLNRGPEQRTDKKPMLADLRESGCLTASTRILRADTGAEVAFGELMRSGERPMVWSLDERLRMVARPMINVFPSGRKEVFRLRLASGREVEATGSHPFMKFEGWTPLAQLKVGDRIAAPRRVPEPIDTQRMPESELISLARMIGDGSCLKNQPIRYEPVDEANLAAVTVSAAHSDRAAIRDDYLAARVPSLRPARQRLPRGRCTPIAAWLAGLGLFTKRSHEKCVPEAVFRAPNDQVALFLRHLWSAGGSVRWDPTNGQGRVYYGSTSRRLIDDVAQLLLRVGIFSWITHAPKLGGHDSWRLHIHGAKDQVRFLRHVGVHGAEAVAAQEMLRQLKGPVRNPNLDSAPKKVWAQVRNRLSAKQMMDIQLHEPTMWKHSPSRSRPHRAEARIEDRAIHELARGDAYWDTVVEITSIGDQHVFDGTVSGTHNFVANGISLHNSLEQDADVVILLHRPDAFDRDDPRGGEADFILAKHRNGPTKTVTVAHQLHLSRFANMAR

[3] = molecular target: T2, High affinity choline transporter 1 (Homo sapiens, UniProt Q9GZV3); assay: CHT inhibitors, dose response, cell-based, 5-point CRC, membrane potential dye (AID 504840); assay type: functional
T2 sequence (Q9GZV3 whole entry): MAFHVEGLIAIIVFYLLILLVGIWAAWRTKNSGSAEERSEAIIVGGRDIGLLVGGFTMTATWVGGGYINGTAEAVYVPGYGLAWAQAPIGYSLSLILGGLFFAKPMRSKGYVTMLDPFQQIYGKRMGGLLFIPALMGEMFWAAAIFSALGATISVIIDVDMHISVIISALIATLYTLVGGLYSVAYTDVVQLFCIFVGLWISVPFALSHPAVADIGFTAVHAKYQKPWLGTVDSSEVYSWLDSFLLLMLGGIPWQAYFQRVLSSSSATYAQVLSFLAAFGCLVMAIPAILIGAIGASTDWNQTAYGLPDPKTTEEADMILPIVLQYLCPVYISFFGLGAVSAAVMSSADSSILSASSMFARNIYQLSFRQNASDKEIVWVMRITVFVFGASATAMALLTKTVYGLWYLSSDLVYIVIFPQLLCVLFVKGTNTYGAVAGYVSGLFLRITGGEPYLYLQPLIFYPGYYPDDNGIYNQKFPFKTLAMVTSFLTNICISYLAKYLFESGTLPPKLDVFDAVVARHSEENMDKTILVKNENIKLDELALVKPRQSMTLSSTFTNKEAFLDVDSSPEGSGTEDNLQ

[4] = system: Vero; assay: Vero cell cytotoxicity, cytotoxicity control for flavivirus capping enzyme inhibitors (AID 588742); assay type: functional; details: Chlorocebus sabaeus
[5] = molecular target: T3, Protein RecA (Mycobacterium tuberculosis, UniProt P9WHJ3); assay: Fluorescence Cell-Free Homogeneous Dose Retest to Identify Inhibitors of RecA-Intein Splicing Activity. [Related pubchem assays (depositor defined):AID2097, AID2223, AID489010, AID492950]; assay type: functional
T3 sequence (P9WHJ3 whole entry): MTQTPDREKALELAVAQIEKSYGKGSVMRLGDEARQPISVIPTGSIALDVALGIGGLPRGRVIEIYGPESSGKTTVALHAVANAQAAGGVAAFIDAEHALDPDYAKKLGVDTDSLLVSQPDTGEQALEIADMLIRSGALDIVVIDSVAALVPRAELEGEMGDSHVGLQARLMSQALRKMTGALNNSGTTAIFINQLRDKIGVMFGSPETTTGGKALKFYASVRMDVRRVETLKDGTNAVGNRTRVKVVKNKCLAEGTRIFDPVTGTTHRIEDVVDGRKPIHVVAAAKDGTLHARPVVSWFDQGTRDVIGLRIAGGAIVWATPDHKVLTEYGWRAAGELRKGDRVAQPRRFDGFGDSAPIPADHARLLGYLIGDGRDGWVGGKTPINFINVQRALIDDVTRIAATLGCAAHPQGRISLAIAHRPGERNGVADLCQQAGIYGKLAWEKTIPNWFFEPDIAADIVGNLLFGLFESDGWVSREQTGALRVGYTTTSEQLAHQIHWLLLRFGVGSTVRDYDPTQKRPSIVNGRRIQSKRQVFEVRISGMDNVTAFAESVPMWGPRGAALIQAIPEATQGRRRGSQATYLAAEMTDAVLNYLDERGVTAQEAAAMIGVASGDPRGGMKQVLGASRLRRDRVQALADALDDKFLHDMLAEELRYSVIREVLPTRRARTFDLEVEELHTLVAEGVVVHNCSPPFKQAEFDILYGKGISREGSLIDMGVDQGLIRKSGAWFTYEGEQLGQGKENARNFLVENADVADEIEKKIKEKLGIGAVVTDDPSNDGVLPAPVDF

[6] = molecular target: Genome polyprotein (dengue virus type 2, UniProt P29990); assay: Dengue-2 NS5 methyltransferase inhibitors, primary screen, biochemical, confirmation dose response (AID 588689); assay type: functional
[7] = Shn3 3'UTR reporter inhibitors, dose response, cell-based, Clone20 osteoblasts, firefly luciferase, cherry-picked (AID 624132); assay type: functional;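 note: firefly luciferase luminescence from reporter carrying the Shn3 3'UTR in osteoblasts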
[8] = control 3'UTR Renilla luciferase suppression, dose response, counter-screen for Shn3 inhibitor project, cell-based, Clone20-Shn3RL, cherry-picked (AID 624133); assay type: functional
[9] = molecular target: ATP-binding cassette sub-family B member 6 (Homo sapiens, UniProt Q9NP58); assay: ABCB6 transporter inhibitors, porphyrin accumulation, dose response, flow cytometry, K562-ABCB6 cells, cherry pick 02 (AID 624487); assay type: functional; details: read-out: EC50_MICROM
[10] = molecular target: 5-hydroxytryptamine receptor 1E (Homo sapiens, UniProt P28566); assay: Counterscreen assay for S1P3 antagonists: Dose response cell-based high throughput screening assay to identify antagonists of the 5-Hydroxytryptamine Receptor Subtype 1E (5HT1E). [Related pubchem assays: 1429, 485 ]; assay type: functional
[11] = molecular target: Sphingosine 1-phosphate receptor 3 (Homo sapiens, UniProt Q99500); assay: Dose response cell-based high throughput screening assay for antagonists of the Sphingosine 1-Phosphate Receptor 3 (S1P3). [Related pubchem assays: 1429, 485 ]; assay type: functional
[12] = system: BJ; assay: cytotoxicity toward BJ-TERT fibroblasts, dose response, cell-based, RAS-independent, luminescence (AID 1933); assay type: functional; details: Homo sapiens
[13] = molecular target: T4, Heat shock factor protein 1 (Mus musculus, UniProt P38532); assay: inhibition of MG132-induced HSE-luciferase signal, confirmation, cell-based, NIH3T3, luminescence, dose retest (AID 2382); assay type: functional;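 note: NIH3T3 fibroblasts with HSF1-driven luciferase reporter stressed by proteasome inhibitor MG132; luminescence from HSF1-driven luciferase expression after 8 hours of MG132 stress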
T4 sequence (P38532 whole entry): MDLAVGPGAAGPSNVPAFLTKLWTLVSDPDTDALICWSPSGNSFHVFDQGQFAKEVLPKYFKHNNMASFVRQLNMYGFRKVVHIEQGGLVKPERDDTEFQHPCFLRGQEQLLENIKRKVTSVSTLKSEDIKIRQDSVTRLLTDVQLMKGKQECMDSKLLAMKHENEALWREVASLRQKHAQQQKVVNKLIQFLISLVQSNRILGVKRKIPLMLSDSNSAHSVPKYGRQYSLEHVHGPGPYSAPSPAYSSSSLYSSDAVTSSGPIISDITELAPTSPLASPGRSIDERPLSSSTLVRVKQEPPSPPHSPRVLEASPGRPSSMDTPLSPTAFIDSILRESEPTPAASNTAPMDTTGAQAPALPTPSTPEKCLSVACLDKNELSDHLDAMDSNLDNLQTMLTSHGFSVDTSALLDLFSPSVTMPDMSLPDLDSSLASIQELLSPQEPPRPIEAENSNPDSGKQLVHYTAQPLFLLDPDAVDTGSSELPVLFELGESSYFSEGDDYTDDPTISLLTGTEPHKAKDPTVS

[14] = system: BJ; assay: cells; assay type: functional, cell-based; details: Homo sapiens
[15] = molecular target: Mothers against decapentaplegic homolog 3 (Homo sapiens, UniProt P84022); assay: SMAD3 transcription factor inhibitors, dose response (AID 715); assay type: functional
[16] = growth suppression of PTEN-null colon cells, dose response, cell-based, HCT116 PTEN knockout (AID 1047); assay type: functional;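 note: HCT116 colon tumor cells with PTEN knocked out; cells exposed to compound for 60 hours before readout; potency for loss of cell viability measured by luminescence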
[17] = growth suppression of beta-catenin-knockout colon cells, dose response, cell-based, HCT116, human colon tumor (AID 1045); assay type: functional;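 note: HCT116 colon tumor cells with beta catenin knocked out; cells exposed to compound for 60 hours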
[18] = system: BJ; assay: cytotoxicity toward BJ-TERT-LT-ST fibroblasts, dose response, cell-based, RAS-independent, luminescence (AID 1935); assay type: functional; details: Homo sapiens;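 note: BJ fibroblasts immortalized with TERT plus LT and ST oncogenes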
[19] = cytotoxicity toward DRD oncogenic fibroblasts, dose response, cell-based, non-viral oncogenic, luminescence (AID 1934); assay type: functional; details: Homo sapiens
[20] = molecular target: T5, Apoptotic protease-activating factor 1 (Homo sapiens, UniProt O14727); assay type: functional
T5 sequence (O14727 whole entry): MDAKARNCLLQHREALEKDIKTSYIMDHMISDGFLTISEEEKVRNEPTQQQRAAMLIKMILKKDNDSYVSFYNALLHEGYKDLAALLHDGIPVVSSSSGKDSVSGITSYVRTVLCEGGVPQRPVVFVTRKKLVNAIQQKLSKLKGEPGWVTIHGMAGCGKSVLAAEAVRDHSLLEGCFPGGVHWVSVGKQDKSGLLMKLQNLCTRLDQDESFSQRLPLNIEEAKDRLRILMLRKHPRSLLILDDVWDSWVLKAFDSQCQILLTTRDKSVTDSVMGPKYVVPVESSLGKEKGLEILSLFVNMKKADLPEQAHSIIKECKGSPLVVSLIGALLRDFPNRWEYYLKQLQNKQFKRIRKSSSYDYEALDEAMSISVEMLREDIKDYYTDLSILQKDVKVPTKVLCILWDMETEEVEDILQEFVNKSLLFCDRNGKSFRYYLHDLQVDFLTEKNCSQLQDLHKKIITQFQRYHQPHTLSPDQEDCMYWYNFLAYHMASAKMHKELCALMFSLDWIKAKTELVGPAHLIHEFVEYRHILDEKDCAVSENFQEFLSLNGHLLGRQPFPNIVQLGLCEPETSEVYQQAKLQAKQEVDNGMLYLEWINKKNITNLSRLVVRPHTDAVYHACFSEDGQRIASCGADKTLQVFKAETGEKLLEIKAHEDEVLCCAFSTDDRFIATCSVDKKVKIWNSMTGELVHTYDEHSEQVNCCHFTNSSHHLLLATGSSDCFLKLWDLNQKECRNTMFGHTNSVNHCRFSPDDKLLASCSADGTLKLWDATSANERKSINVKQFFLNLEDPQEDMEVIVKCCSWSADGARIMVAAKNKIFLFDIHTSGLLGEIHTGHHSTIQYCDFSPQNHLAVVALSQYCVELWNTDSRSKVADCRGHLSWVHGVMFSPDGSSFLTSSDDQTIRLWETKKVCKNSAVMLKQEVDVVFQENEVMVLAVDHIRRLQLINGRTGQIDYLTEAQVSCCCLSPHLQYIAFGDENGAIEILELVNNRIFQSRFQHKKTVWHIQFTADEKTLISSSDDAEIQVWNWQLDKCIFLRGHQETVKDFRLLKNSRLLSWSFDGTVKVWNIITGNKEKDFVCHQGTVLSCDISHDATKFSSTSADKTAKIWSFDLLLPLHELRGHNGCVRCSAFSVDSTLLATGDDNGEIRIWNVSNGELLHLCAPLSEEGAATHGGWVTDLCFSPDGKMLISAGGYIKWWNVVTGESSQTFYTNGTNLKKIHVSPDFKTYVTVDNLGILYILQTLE

[21] = system: BJ; assay: cytotoxicity toward Ras-transformed BJeLR fibroblasts, dose response, cell-based, alamar blue fluorescence, cherrypicked samples (AID 2631); assay type: functional; details: Homo sapiens;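 note: confirmatory dose-response assay in RAS-dependent BJ fibroblasts engineered with TERT, LT and ST, with cytotoxicity read by fluorescence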
[22] = system: INS1; assay: beta cell apoptosis inhibitors, cytokine rescue, dose response, luminescence, retest (AID 449756); assay type: functional, cell-based; details: Rattus norvegicus;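 note: cell death triggered by IL-1 beta plus TNF-alpha plus IFN-gamma mixture; protective hits raise ATP signal compared with cytokine alone wells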

Chain of Mothers against decapentaplegic homolog 3 (P84022 whole entry): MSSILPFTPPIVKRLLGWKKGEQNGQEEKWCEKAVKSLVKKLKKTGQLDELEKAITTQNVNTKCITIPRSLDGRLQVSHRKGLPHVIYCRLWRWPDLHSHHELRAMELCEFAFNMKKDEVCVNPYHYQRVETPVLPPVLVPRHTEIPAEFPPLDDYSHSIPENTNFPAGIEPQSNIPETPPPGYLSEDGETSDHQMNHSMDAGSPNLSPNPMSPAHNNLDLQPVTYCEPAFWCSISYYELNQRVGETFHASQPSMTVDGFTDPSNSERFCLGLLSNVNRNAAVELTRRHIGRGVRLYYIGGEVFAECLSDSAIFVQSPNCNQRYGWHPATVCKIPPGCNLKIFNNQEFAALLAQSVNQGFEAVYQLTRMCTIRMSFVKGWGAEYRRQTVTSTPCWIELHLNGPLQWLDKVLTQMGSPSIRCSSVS
Chain of Potassium voltage-gated channel subfamily KQT member 2 (O88943 whole entry W236L): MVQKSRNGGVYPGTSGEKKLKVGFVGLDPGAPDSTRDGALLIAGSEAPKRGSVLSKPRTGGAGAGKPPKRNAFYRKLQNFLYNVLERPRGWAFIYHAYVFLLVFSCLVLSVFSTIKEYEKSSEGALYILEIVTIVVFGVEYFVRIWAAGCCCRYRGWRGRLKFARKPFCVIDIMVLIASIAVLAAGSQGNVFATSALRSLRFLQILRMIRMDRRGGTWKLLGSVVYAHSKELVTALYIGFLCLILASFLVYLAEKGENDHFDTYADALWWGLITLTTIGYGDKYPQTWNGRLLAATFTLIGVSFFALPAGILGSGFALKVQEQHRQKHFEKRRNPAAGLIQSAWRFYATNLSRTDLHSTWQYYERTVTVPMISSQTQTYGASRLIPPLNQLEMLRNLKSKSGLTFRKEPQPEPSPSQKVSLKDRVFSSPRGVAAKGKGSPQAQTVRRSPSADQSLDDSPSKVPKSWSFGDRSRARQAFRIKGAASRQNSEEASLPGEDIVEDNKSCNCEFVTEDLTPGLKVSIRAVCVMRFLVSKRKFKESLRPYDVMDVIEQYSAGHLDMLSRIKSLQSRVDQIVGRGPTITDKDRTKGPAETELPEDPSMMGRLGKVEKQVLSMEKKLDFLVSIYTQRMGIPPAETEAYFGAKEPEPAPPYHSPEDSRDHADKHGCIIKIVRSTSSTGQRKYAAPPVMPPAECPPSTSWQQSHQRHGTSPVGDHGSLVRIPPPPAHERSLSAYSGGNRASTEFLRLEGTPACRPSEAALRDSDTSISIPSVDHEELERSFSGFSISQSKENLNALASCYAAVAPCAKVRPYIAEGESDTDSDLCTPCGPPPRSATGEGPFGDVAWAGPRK
Chain of Sphingosine 1-phosphate receptor 3 (Q99500 whole entry): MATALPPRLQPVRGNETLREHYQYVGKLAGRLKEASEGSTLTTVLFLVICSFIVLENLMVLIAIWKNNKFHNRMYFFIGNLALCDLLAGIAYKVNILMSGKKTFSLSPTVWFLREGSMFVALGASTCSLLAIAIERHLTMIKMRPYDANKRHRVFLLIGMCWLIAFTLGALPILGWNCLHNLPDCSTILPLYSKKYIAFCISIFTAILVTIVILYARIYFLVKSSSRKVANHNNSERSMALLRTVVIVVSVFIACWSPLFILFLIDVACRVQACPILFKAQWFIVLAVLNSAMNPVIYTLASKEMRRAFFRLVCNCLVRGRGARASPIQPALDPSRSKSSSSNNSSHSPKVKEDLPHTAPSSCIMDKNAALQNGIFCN
Chain of Genome polyprotein (P29990 2492-3391 limits assumed): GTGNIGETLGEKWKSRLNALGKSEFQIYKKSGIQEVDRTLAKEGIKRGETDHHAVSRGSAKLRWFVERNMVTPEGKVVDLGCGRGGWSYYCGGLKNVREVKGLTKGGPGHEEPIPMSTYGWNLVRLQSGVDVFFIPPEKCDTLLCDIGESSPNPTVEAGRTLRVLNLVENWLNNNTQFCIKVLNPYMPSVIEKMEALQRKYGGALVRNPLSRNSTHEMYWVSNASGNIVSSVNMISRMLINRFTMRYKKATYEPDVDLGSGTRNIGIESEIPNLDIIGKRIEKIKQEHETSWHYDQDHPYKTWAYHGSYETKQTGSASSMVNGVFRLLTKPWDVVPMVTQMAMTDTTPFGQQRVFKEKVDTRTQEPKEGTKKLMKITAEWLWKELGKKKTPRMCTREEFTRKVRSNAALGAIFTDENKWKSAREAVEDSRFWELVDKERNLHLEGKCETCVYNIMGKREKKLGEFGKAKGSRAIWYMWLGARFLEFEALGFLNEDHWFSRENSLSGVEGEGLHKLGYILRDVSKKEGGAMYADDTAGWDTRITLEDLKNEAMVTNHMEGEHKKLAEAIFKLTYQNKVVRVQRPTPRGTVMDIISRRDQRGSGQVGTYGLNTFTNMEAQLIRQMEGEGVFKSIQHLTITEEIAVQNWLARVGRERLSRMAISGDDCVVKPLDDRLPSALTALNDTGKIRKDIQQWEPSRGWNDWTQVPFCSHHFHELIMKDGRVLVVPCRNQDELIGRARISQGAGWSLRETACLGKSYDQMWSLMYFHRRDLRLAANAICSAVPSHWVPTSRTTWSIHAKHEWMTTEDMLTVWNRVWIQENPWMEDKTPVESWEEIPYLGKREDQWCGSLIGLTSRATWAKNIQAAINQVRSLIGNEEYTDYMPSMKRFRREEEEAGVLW
Chain of ATP-binding cassette sub-family B member 6 (Q9NP58 whole entry): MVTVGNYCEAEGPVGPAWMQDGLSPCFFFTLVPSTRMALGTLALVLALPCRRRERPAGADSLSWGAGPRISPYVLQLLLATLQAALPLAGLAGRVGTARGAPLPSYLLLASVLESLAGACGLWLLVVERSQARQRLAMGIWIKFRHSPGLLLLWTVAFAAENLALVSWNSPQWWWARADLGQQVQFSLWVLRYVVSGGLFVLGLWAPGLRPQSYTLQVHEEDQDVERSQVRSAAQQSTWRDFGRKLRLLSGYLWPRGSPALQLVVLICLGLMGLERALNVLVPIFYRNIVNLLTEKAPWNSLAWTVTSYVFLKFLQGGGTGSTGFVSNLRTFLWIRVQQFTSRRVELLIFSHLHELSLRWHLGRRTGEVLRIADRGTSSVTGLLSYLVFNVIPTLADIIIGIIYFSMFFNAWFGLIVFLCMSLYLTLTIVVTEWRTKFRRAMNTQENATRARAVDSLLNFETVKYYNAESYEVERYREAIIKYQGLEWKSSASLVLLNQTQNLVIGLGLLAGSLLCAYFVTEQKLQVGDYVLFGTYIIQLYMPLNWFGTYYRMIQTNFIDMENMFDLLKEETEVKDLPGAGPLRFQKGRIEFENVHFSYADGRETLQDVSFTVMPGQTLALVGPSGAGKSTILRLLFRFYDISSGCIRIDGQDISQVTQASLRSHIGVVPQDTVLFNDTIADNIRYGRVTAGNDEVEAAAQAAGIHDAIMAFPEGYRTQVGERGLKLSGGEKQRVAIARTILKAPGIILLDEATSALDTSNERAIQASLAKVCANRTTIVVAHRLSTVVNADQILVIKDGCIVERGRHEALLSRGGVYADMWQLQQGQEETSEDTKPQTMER
Chain of 5-hydroxytryptamine receptor 1E (P28566 whole entry): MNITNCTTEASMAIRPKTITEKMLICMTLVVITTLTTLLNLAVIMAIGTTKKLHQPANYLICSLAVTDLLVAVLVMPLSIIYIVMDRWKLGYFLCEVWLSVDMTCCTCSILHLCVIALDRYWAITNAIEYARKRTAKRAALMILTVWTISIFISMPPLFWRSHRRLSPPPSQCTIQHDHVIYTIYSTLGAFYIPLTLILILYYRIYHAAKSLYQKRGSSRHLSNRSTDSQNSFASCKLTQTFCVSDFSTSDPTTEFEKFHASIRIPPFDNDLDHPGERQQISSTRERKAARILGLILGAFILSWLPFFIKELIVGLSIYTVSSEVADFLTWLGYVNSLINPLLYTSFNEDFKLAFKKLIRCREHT

CC(C)c1nnc(NC(=O)c2nc(S(=O)(=O)Cc3ccccc3)ncc2Cl)s1
EC50 [1]: 6200 nM (active) | AC50 [2]: 48000 nM (active) | IC50 [3]: 4470 nM (active) | CC50 [4]: 25900 nM (active) | EC50 [5]: 8120 nM (active) | IC50 [6]: > 100000 nM (active) | AC50 [7]: 876 nM (active) | AC50 [8]: 6320 nM (active) | EC50 [9]: 36800 nM (active)

Cc1cc(C(=O)OC(C(=O)Nc2ccc(C)c(Cl)c2)c2ccccc2)c(C)o1 (configuration not stated)
IC50 [10]: 13400 nM (not active) | IC50 [11]: 11800 nM (not active)

O=C1C(=O)c2ccc(-c3ccccc3)cc2-c2ccccc21
EC50 [12]: 1020 nM (active) | EC50 [13]: 1750 nM (active) | EC50 [14]: 2750 nM (inconclusive) | IC50 [15]: 2000 nM (active) | EC50 [16]: 1160 nM (active) | EC50 [17]: 1210 nM (active) | EC50 [18]: 1230 nM (inconclusive) | EC50 [19]: 2210 nM (active) | IC50 [20]: 316 nM (active) | EC50 [21]: 1600 nM (active) | AC50 [22]: 1040 nM (active)
